Test results reported in patent US20150105386A1, “4-(4-PYRIDINYL)-BENZAMIDES AND THEIR USE AS ROCK ACTIVITY MODULATORS” (AbbVie Deutschland GmbH & Co KG, priority 2007, published 2015).

These compounds were tested against T1, hROCK-2 (Homo sapiens, UniProt O75116) (assay: ROCK-2 Assay (33P-ATP FlashPlate kinase assay, biotinylated S6 peptide)). Settings: hROCK-2 0.8 nM, 5 μM ATP, 1.5 μM biotinylated S6 peptide, room temperature, 60 min.
T1 construct: purchased Upstate
Assay type: biochemical
Experimental: The reaction is stopped by addition of 150 μl of 0.1 M EDTA in Dulbecco's PBS. 170 μl from each well are loaded onto a FlashPlate (PerkinElmer) and incubated at room temperature for 30 min.

T1 sequence (O75116 whole entry): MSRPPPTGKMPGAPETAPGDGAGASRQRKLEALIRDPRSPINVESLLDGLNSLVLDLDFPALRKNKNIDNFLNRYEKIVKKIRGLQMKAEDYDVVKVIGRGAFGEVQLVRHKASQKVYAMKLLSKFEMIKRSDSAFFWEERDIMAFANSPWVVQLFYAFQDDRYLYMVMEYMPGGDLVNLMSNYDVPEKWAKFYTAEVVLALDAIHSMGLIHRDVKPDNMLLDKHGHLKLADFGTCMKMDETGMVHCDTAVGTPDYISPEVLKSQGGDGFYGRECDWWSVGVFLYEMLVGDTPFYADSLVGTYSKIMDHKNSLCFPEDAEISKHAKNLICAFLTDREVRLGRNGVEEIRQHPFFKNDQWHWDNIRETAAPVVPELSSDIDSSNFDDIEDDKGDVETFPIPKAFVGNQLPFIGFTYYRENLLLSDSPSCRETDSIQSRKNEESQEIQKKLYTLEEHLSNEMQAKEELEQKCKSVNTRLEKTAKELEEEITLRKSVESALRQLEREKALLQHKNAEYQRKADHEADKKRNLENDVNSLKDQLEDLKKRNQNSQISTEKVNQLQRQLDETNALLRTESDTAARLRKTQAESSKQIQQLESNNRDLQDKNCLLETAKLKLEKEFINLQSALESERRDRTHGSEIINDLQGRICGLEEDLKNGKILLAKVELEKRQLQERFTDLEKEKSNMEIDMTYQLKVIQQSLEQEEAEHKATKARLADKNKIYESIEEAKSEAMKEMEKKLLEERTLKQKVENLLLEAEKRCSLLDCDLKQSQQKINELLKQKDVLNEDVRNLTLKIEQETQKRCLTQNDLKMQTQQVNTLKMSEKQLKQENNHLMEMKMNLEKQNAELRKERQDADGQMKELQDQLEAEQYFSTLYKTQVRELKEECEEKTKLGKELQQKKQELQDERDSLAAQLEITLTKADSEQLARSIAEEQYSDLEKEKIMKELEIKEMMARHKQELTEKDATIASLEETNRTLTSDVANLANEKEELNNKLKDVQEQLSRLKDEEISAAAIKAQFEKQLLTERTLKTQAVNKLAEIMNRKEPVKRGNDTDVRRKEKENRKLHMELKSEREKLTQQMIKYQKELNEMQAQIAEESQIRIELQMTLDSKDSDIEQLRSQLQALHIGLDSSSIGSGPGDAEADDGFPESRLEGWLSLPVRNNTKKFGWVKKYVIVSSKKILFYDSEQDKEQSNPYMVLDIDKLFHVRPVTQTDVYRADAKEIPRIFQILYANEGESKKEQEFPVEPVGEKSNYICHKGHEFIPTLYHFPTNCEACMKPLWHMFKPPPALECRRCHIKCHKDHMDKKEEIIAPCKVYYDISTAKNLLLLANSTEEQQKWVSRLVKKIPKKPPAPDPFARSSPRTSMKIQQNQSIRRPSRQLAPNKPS

Ki, < 50 nM:
COc1cccc([C@@H](C)NC(=O)c2ccc(-c3ccncc3)cc2Cl)c1 [Example 243, 2-chloro-N—[(R)-1-(3-methoxy-phenyl)-ethyl]-4-pyridin-4-yl-benzamide]
COc1cccc([C@@H](C)NC(=O)c2ccc(-c3ccncc3)c(F)c2)c1 [Example 244, 3-fluoro-N—[(R)-1-(3-methoxy-phenyl)-ethyl]-4-pyridin-4-yl-benzamide]
COc1cccc([C@@H](C)NC(=O)c2ccc(-c3ccncc3)cc2F)c1 [Example 245, 2-fluoro-N—[(R)-1-(3-methoxy-phenyl)-ethyl]-4-pyridin-4-yl-benzamide]
COc1cccc([C@@H](C)NC(=O)c2ccc(-c3ccncc3F)cc2C)c1 [Example 246, 4-(3-fluoro-pyridin-4-yl)-N—[(R)-1-(3-methoxy-phenyl)-ethyl]-2-methyl-benzamide]
COc1cccc([C@@H](C)NC(=O)c2ccc(-c3ccncc3F)cc2OC)c1 [Example 247, 4-(3-fluoro-pyridin-4-yl)-2-methoxy-N—[(R)-1-(3-methoxy-phenyl)-ethyl]-benzamide]
COc1cccc([C@@H](C)NC(=O)c2ccc(-c3cc(F)ncc3C)cc2)c1 [Example 248, 4-(2-fluoro-5-methyl-pyridin-4-yl)-N—[(R)-1-(3-methoxy-phenyl)-ethyl]-benzamide]
CCOc1cc(-c2ccncc2)ccc1C(=O)N[C@H](C)c1cccc(OC)c1 [Example 249, 2-ethoxy-N—[(R)-1-(3-methoxy-phenyl)-ethyl]-4-pyridin-4-yl-benzamide]
